≈ marks a conversion by molar mass, not a printed value.
Experiments:
[1] = Solubility in IV formulation saline/PEG400/Tween80; assay type: physicochemical; conditions: saline/PEG400/Tween80 (88:10:1)
Method: Intravenous (IV) formulations of a crystalline form of Compound 1 and the amorphous form of Compound 1 were prepared by contacting the amorphous of crystalline Compound 1 with saline/PEG400/Tween80 (88:10:1). The crystalline form of Compound 1 was prepared as described in Example 1, the amorphous form of Compound was prepared as described in Example 2, Method 1.

[2] = In vivo rat PK study, oral aqueous liquid suspension formulation; conditions: oral 10 mg/kg
Method: An in vivo rat PK study was conducted to compare the PK profile and bioavailability of crystalline form against amorphous form of Compound 1 in an aqueous liquid suspension formulation, which contained 0.5% w/v Hydroxypropyl Cellulose (Klucel GF grade) and 0.5% w/v Poloxamer F-68 (BASF Kolliphor P188). Each animal was orally administrated 10 mg/kg of Compound 1 at 5 mL/kg dosing volume (a dosing concentration of 2 mg/mL).

[3] = Kinetic solubility in 0.1 N HCl, FaSSGF and FeSSIF at 37° C.; assay type: physicochemical
Method: The in vitro solubility of a crystalline form of Compound 1 and the amorphous form of Compound 1 was tested.
The amorphous form was prepared as described in Example 2, Method 1, and the crystalline form of Compound 1 was prepared as described in Example 1.
Crystalline and amorphous forms of Compound 1 were saturated in three different media: 0.1 N HCl solution, Fasted State Simulated Gastric Fluid (FaSSGF), and Fed State Simulated Intestinal Fluid (FeSSIF). The samples were shaken inside a 37° C. water bath at 40 rpm. The concentration of Compound 1 dissolved in these samples was measured by HPLC at four different time points (0.5, 1, 2 and 4 hours).

[4] = suspension in 0.5% w/v Klucel GF and 0.5% w/v Poloxamer F-68, 10 mg/kg

Cc1ccc(NC(=O)[C@H]2CCCN(C(=O)c3c(C)cccc3F)[C@H]2c2ccc(NC3CCCC3)cc2)cc1C(F)(F)F [Crystalline Compound 1, (2R,3S)-2-(4-(cyclopentylamino)phenyl)-1-(2-fluoro-6-methylbenzoyl)-N-(4-methyl-3-(trifluoromethyl)phenyl)piperidine-3-carboxamide]
Solubility in IV Formulation ([1]; 0.5 Hr.): 15.2 µg/mL (≈ 26.1 µM)
Solubility in IV Formulation ([1]; 1 Hr.): 17.2 µg/mL (≈ 29.6 µM)
Solubility in IV Formulation ([1]; 2 Hr.): 20.5 µg/mL (≈ 35.2 µM)
Solubility in IV Formulation ([1]; 4 Hr.): 21.6 µg/mL (≈ 37.1 µM)
Solubility in IV Formulation ([1]; 8 Hr.): 22.0 µg/mL (≈ 37.8 µM)
Solubility in IV Formulation ([1]; 24 Hr.): 21.9 µg/mL (≈ 37.7 µM)
Solubility in IV Formulation ([1]; 48 Hr.): 21.9 µg/mL (≈ 37.7 µM)
Solubility in IV Formulation ([1]; 96 Hr.): 21.6 µg/mL (≈ 37.1 µM)
half-life ([2]; in vivo, po, 10 mg/kg, suspension in 0.5% w/v Klucel GF and 0.5% w/v Poloxamer F-68): 3.9 h
MRT ([2]; in vivo, po, 10 mg/kg, suspension in 0.5% w/v Klucel GF and 0.5% w/v Poloxamer F-68, read-out: MRT): 6 h
Tmax ([2]; in vivo, po, 10 mg/kg, suspension in 0.5% w/v Klucel GF and 0.5% w/v Poloxamer F-68, read-out: Tmax): 1.5 h
AUC0-t [2, 4]: 983 ng·h/mL
AUCinf [2, 4]: 996 ng·h/mL
Cmax [2, 4]: 129 ng/mL
CCX168 Solubility at 37° C. ([3]; 0.1N HCl (pH 1.06), 0.5 Hr.): ND (ND = Not Detected)
CCX168 Solubility at 37° C. ([3]; 0.1N HCl (pH 1.06), 1 Hr.): ND (ND = Not Detected)
CCX168 Solubility at 37° C. ([3]; 0.1N HCl (pH 1.06), 2 Hr.): ND (ND = Not Detected)
CCX168 Solubility at 37° C. ([3]; 0.1N HCl (pH 1.06), 4 Hr.): ND (ND = Not Detected)
CCX168 Solubility at 37° C. ([3]; FaSSGF (pH 1.64), 0.5 Hr.): ND (ND = Not Detected)
CCX168 Solubility at 37° C. ([3]; FaSSGF (pH 1.64), 1 Hr.): ND (ND = Not Detected)
solubility at 2 h ([3]; Fasted State Simulated Gastric Fluid (FaSSGF), 37 °C, pH 1.64, fassgf or other biorelevant, thermodynamic from solid, FaSSGF (pH 1.64), 2 Hr., read-out: CCX168 Solubility at 37° C.): < 3.1 µg/mL
solubility at 4 h ([3]; Fasted State Simulated Gastric Fluid (FaSSGF), 37 °C, pH 1.64, fassgf or other biorelevant, thermodynamic from solid, FaSSGF (pH 1.64), 4 Hr., read-out: CCX168 Solubility at 37° C.): < 3.1 µg/mL
CCX168 Solubility at 37° C. ([3]; FeSSIF (pH 4.90), 1 Hr.): ND (ND = Not Detected)
CCX168 Solubility at 37° C. ([3]; FeSSIF (pH 4.90), 2 Hr.): ND (ND = Not Detected)
CCX168 Solubility at 37° C. ([3]; FeSSIF (pH 4.90), 4 Hr.): ND (ND = Not Detected)
solubility at 0.5 h ([3]; Fed State Simulated Intestinal Fluid (FeSSIF), 37 °C, pH 4.9, fessif, thermodynamic from solid, FeSSIF (pH 4.90), 0.5 Hr., read-out: CCX168 Solubility at 37° C.): < 3.1 µg/mL
